# Assay results as given in patent US9522120B2, “Compositions and methods of making sustained release liquid formulations” (NEOS THERAPEUTICS, LP, priority 2005, dated 2016).
# Tests used:
# [1] = water and alcohol; cited from earlier work
# [2] = Dissolution of phenylephrine sustained release coated beads; format: physicochemical; conditions: when combined with Gauifenesin DC
# Protocol: Due to this effect the testing of the dissolution rate is achieved by first making a mock-up of the finished product. By doing so the suitability of the phenylephrine beads was determined more accurately. Direct specifications for dissolution were determined once data was collected to accurately predict this rate change.
dissolution rate [2],Structure (SMILES),solubility [1]
,"COc1ccccc1OCC(O)CO (centres unmarked) [Guaifenesin, 3(2-methoxyphenoxy)-1,2-propanediol]",soluble in water and alcohol
accelerated,CNC[C@H](O)c1cccc(O)c1 [phenylephrine],
